Assay results reported in US8952024B2, “Herbicidal pyrimidone derivatives” (E I du Pont de Nemours and Company, priority 2009, dated 2015).

Experiments:
Assay in all cases: Test D pre-/postemergence plant response
Assay type in all cases: in vivo
[1] = tested on: ragweed (common ragweed, Ambrosia elatior)
From the text: (§1) Seeds of plant species selected from bermudagrass (Cynodon dactylon), Surinam grass (Brachiaria decumbens), large crabgrass (Digitaria sanguinalis), green foxtail (Setaria viridis), goosegrass (Eleusine indica), johnsongrass (Sorghum halepense), kochia (Kochia scoparia), morningglory (pitted morningglory, Ipomoea lacunosa), nutsedge (purple nutsedge, Cyperus rotundus), ragweed (common ragweed, Ambrosia elatior), black mustard (Brassica nigra), guineagrass (Panicum maximum), dallisgrass (Paspalum dilatatum), barnyardgrass (Echinochloa crus-galli), sandbur (southern sandbur, Cenchrus echinatus), sowthistle (common sowthistle, Sonchus oleraceous), prickly sida (Sida spinosa), Italian ryegrass (Lolium multiflorum), purslane (common purslane, Portulaca oleracea), signalgrass (broadleaf signalgrass, Brachiaria platyphylla), groundsel (common groundsel, Senecio vulgaris), chickweed (common chickweed, Stellaria media), dayflower (Virginia (VA) dayflower, Commelina virginica), bluegrass (annual bluegrass, Poa annua), naked crabgrass (Digitaria nuda), itchgrass (Rottboellia cochinchinensis), quackgrass (Elytrigia repens), field bindweed (Convolvulus arvensis), spanishneedles (Bidens bipinnata), mallow (common mallow, Malva sylvestris) and Russian thistle (Salsola kali), were planted into a blend of loam soil and sand and treated preemergence with test chemicals formulated in a non-phytotoxic solvent mixture which included a surfactant. At the same time, plants from these weed species were treated with postemergence applications of the test chemicals formulated in the same manner. Plants ranged in height from 2 to 18 cm (1- to 4-leaf stage) for postemergence treatments.
(§2) Treated plants and controls were maintained in a greenhouse for 14 to 21 days, after which time all species were visually evaluated and compared to controls. Plant response ratings, summarized in Table D, are based on a scale of 0 to 100 where 0 is no effect and 100 is complete control. A dash (-) response means no test result.

[2] = tested on: sandbur (southern sandbur, Cenchrus echinatus)
From the text: as §1, §2

[3] = tested on: black mustard (Brassica nigra)
From the text: as §1, §2

[4] = tested on: goosegrass (Eleusine indica)
From the text: as §1, §2

[5] = tested on: large crabgrass (Digitaria sanguinalis)
From the text: as §1, §2

[6] = tested on: signalgrass (broadleaf signalgrass, Brachiaria platyphylla)
From the text: as §1, §2

[7] = tested on: morningglory (pitted morningglory, Ipomoea lacunosa)
From the text: as §1, §2

[8] = tested on: bluegrass (annual bluegrass, Poa annua)
From the text: as §1, §2

[9] = tested on: purslane (common purslane, Portulaca oleracea)
From the text: as §1, §2

kochia (Kochia scoparia) = tested on: kochia (Kochia scoparia)
From the text: as §1, §2

[10] = tested on: dallisgrass (Paspalum dilatatum)
From the text: as §1, §2

[11] = tested on: Surinam grass (Brachiaria decumbens)
From the text: as §1, §2

[12] = tested on: chickweed (common chickweed, Stellaria media)
From the text: as §1, §2

[13] = tested on: quackgrass (Elytrigia repens)
From the text: as §1, §2

[14] = tested on: dayflower (Virginia (VA) dayflower, Commelina virginica)
From the text: as §1, §2

[15] = Postemergence, 16 g ai/ha, scale 0 to 100
[16] = Postemergence, 31 g ai/ha, scale 0 to 100
[17] = Postemergence, 125 g ai/ha, scale 0 to 100 (0 no effect, 100 complete control)
[18] = Postemergence, 62 g ai/ha, scale 0 to 100 (0 no effect, 100 complete control)
[19] = Preemergence, 16 g ai/ha, scale 0 to 100, 0 no effect, 100 complete control
[20] = Preemergence, 31 g ai/ha, scale 0 to 100 (0 no effect, 100 complete control)
[21] = Preemergence, 125 g ai/ha, scale 0 to 100
[22] = Postemergence, 31 g ai/ha, scale 0 to 100 (0 no effect, 100 complete control)
[23] = Preemergence, 62 g ai/ha, scale 0 to 100

What does the source list for O=C1CCCC(O)=C1C(=O)c1cnc(-c2cccs2)n(-c2ccccc2)c1=O [Compound 66]?
Plant response rating, Ragweed [1, 15]: 0; Plant response rating, Ragweed [1, 16]: 0; Plant response rating, Ragweed [1, 17]: 5; Plant response rating, Ragweed [1, 18]: 0; Plant response rating, Ragweed [1, 19]: 0; Plant response rating, Ragweed [1, 20]: 0; Plant response rating, Ragweed [1, 21]: 0; Plant response rating, Sandbur [2, 16]: 35; Plant response rating, Sandbur [2, 17]: 90; Plant response rating, Sandbur [2, 18]: 35; Plant response rating, Sandbur [2, 19]: 0; Plant response rating, Sandbur [2, 20]: 5; Plant response rating, Sandbur [2, 21]: 80; Plant response rating, Black Mustard [3, 15]: 0; Plant response rating, Black Mustard [3, 22]: 20; Plant response rating, Black Mustard [3, 17]: 98; Plant response rating, Black Mustard [3, 18]: 50; Plant response rating, Black Mustard [3, 19]: 0; Plant response rating, Black Mustard [3, 20]: 5; Plant response rating, Black Mustard [3, 23]: 35; Plant response rating, Black Mustard [3, 21]: 80; Plant response rating, Goosegrass [4, 15]: 50; Plant response rating, Goosegrass [4, 16]: 50; Plant response rating, Goosegrass [4, 17]: 75; Plant response rating, Goosegrass [4, 18]: 65; Plant response rating, Goosegrass [4, 19]: 0; Plant response rating, Goosegrass [4, 20]: 0; Plant response rating, Goosegrass [4, 23]: 30; Plant response rating, Goosegrass [4, 21]: 50; Plant response rating, Crabgrass, Large [5, 15]: 20; Plant response rating, Crabgrass, Large [5, 16]: 25; Plant response rating, Crabgrass, Large [5, 17]: 35; Plant response rating, Crabgrass, Large [5, 18]: 25; Plant response rating, Crabgrass, Large [5, 19]: 15; Plant response rating, Crabgrass, Large [5, 20]: 30; Plant response rating, Crabgrass, Large [5, 23]: 50; Plant response rating, Crabgrass, Large [5, 21]: 98; Plant response rating, Signalgrass [6, 15]: 0; Plant response rating, Signalgrass [6, 16]: 10; Plant response rating, Signalgrass [6, 17]: 30; Plant response rating, Signalgrass [6, 18]: 30; Plant response rating, Signalgrass [6, 19]: 0; Plant response rating, Signalgrass [6, 20]: 5; Plant response rating, Signalgrass [6, 21]: 5; Plant response rating, Morningglory [7, 15]: 65; Plant response rating, Morningglory [7, 16]: 70; Plant response rating, Morningglory [7, 17]: 90; Plant response rating, Morningglory [7, 18]: 90; Plant response rating, Morningglory [7, 19]: 0; Plant response rating, Morningglory [7, 20]: 0; Plant response rating, Morningglory [7, 23]: 90; Plant response rating, Morningglory [7, 21]: 95; Plant response rating, Bluegrass [8, 15]: 0; Plant response rating, Bluegrass [8, 22]: 0; Plant response rating, Bluegrass [8, 17]: 0; Plant response rating, Bluegrass [8, 18]: 0; Plant response rating, Bluegrass [8, 19]: 0; Plant response rating, Bluegrass [8, 20]: 0; Plant response rating, Bluegrass [8, 23]: 0; Plant response rating, Bluegrass [8, 21]: 0; Plant response rating, Purslane [9, 16]: 50; Plant response rating, Purslane [9, 17]: 75; Plant response rating, Purslane [9, 18]: 75; Plant response rating, Purslane [9, 19]: 0; Plant response rating, Purslane [9, 20]: 0; Plant response rating, Purslane [9, 23]: 60; Plant response rating, Purslane [9, 21]: 100; Plant response rating, Kochia (kochia (Kochia scoparia); [16]): 25; Plant response rating, Kochia (kochia (Kochia scoparia); [17]): 40; Plant response rating, Kochia (kochia (Kochia scoparia); [18]): 25; Plant response rating, Kochia (kochia (Kochia scoparia); [19]): 0; Plant response rating, Kochia (kochia (Kochia scoparia); [20]): 65; Plant response rating, Kochia (kochia (Kochia scoparia); [23]): 65; Plant response rating, Kochia (kochia (Kochia scoparia); [21]): 90; Plant response rating, Dallisgrass [10, 15]: 35; Plant response rating, Dallisgrass [10, 16]: 35; Plant response rating, Dallisgrass [10, 17]: 60; Plant response rating, Dallisgrass [10, 18]: 35; Plant response rating, Dallisgrass [10, 19]: 0; Plant response rating, Dallisgrass [10, 20]: 5; Plant response rating, Dallisgrass [10, 23]: 5; Plant response rating, Dallisgrass [10, 21]: 95; Plant response rating, Surinam Grass [11, 16]: 60; Plant response rating, Surinam Grass [11, 17]: 90; Plant response rating, Surinam Grass [11, 18]: 90; Plant response rating, Surinam Grass [11, 19]: 0; Plant response rating, Surinam Grass [11, 20]: 80; Plant response rating, Surinam Grass [11, 21]: 98; Plant response rating, Chickweed [12, 17]: 95; Plant response rating, Chickweed [12, 18]: 35; Plant response rating, Chickweed [12, 19]: 0; Plant response rating, Chickweed [12, 20]: 20; Plant response rating, Chickweed [12, 23]: 90; Plant response rating, Chickweed [12, 21]: 98; Plant response rating, Quackgrass [13, 15]: 0; Plant response rating, Quackgrass [13, 16]: 5; Plant response rating, Quackgrass [13, 17]: 5; Plant response rating, Quackgrass [13, 18]: 5; Plant response rating, Quackgrass [13, 19]: 0; Plant response rating, Quackgrass [13, 20]: 0; Plant response rating, Quackgrass [13, 21]: 0; Plant response rating, Dayflower, VA [14, 15]: 0; Plant response rating, Dayflower, VA [14, 16]: 0; Plant response rating, Dayflower, VA [14, 17]: 30; Plant response rating, Dayflower, VA [14, 18]: 0; Plant response rating, Dayflower, VA [14, 19]: 0; Plant response rating, Dayflower, VA [14, 20]: 0; Plant response rating, Dayflower, VA [14, 23]: 0; Plant response rating, Dayflower, VA [14, 21]: 5
